Source: US20220016101A1 (ACADIA Pharmaceuticals Inc., priority 2018, published 2022)
Values joined by “and” are separate entries in the source; they are usually repeats but may differ in a detail not shown here. Equal values may be shown once.

Tests used:
[1] = test system: adults with Parkinson's disease and depression; assay: HAMD-17 total score, open-label study in Parkinson's disease and depression; format: in vivo, human; settings: Week 8; interim, first 31 patients
Method: Subjects can receive treatment as either monotherapy or adjunctively if inadequately controlled with SSRI/SNRI monotherapy. A primary endpoint of the study is change from baseline to Week 8 in the Hamilton Depression Scale 17-item (HAMD-17) total score. Secondary endpoints include Clinical Global Impression (CGI) scales (improvement and severity), Scale of Outcomes in PD-Sleep (SCOPA), and quality of life as measured by EuroQol-5 dimensions-5 levels (EQ-5D-5L).
Subjects were assessed for eligibility and prohibited medications were discontinued. After all screening assessments were completed, eligible subjects returned to the clinic for Baseline evaluation. After Baseline assessments were completed, subjects were enrolled and received the first dose of pimavanserin. Study medication were provided to the subjects to take home with instructions to take the medication approximately the same time each day, and return all used containers and unused study drug as scheduled.
At approximately 2, 4, and 6 weeks after start of dosing of study drug subjects returned to the clinic for assessments. Safety measures, HAMD-17, C-SSRS (Columbia Suicide Severity Rating Scale), CGI-S(Clinical Global Impression-Severity), and CGI-I (Clinical Global Impression-Improvement) were evaluated at all visits. […]
The HAMD-17 total score was analyzed using mixed model for repeated measures (MMRM). […]

[2] = test system: patients with MDD and an inadequate response to an SSRI or SNRI; assay: Sheehan Disability Score (SDS): score, functional remission, days unproductive, MDD study; format: in vivo, human
Text: The SDS is well validated and widely accepted for assessing functional outcomes in patients with MDD (Weiller et al, Neuropsychiatr Dis Treat. 2017; 14:103-115). […] Routine assessments of both symptoms and function could be helpful for minimizing residual effects that increase the risk for relapse or recurrence (Sheehan et al, J Affect Disord. 2017; 215:299-313).
“Functional remission” as used herein refers to remission in functional impairment. Functional remission is defined as a SDS total score of 6 or less at endpoint. (Sheehan et al. Human Psychopharmacology 2016, 31, 53-63).
All patients continued on their SSRI or SNRI at a stable dose for the duration of the study.
Clinic visits occurred weekly from Weeks 1 through 10. The MADRS was administered at screening and baseline. The HAMD-17, SDS, CGI, and KSS were administered at baseline and weekly during the study. Other endpoints such as the SF-12 were administered at baseline and Weeks 5 and 10. Treatment response was defined as a reduction of 50% from baseline for the HAMD-17 total score, and remission was defined as a HAMD-17 total score
In Stage 1, weeks 1-5 is the study weeks 1-5 and in Stage 2, weeks 1-5 is the study weeks 6-10. 95% CI refers to Newcombe 95% confidence interval. The p-value is from stage-specific Pearson's Chi-square test. Functional remission is defined as SDS total score […].
Higher SDS mean score indicates greater functional impairment. […] In Stage 1, weeks 1-5 is the study weeks 1-5 and in Stage 2, weeks 1-5 is the study weeks 6-10. LSM from the stage-specific MMRM analysis with the change from baseline as the outcome; treatment group, visit, treatment-by-visit interaction, baseline SDS Day Unproductive, and baseline SDS Days Unproductive-by-visit interaction as the factors. 2-sided p-value for treatment difference from the stage-specific MMRM analysis.

SMILES: CC(C)COc1ccc(CNC(=O)N(Cc2ccc(F)cc2)C2CCN(C)CC2)cc1 [pimavanserin, N-(4-Fluorophenylmethyl)-N-(1-methylpiperidin-4-yl)-N′-(4-(2-methylpropyloxy)phenylmethyl)carbamide]
- patients reaching remission (HAMD-17≤7) [1]: 35.5%
- patients with ≥50% improvement in the HAMD-17 [1]: 45.2%
- SDS Days Unproductive Effect Size (Cohen's d) ([2]; Stage 1): 0.518
- SDS Days Unproductive Change from Baseline to Week 5 Mean (SE) ([2]; Stage 1, 34 mg QD + SSRI/SNRI): −2.364 (0.3253)
- SDS Days Unproductive Change from Baseline to Week 5 Median ([2]; Stage 1, 34 mg QD + SSRI/SNRI): −2.000
- SDS Days Unproductive Week 5 Mean (SE) ([2]; Stage 1, 34 mg QD + SSRI/SNRI): 0.956 (0.2356)
- SDS Days Unproductive Week 5 Median ([2]; Stage 1, 34 mg QD + SSRI/SNRI): 0.000
- SDS score LSmean (SE) change from baseline to Week 5 ([2]; Stage 1, 34 mg QD + SSRI/SNRI): −3.3 (0.35)
- SDS score LSmean (SE) change from baseline to Week 5 ([2]; Stage 1, 34 mg QD + SSRI/SNRI, listed as Pimavanserin): −3.254
- SDS effect size (Cohen's d) ([2]; Stage 1 Week 5): 0.498 and ~0.5
- SDS individual items (work/school, social life, family life/home responsibilities) effect size vs placebo ([2]; Stage 1 Week 5): a positive effect size was observed for all the 3 individual items
- SDS effect size (Cohen's d) ([2]; Stage 1 Week 5, listed as Pimavanserin): 0.498
- SDS Days Unproductive Effect Size (Cohen's d) ([2]; Stage 2): 0.167
- SDS effect size (Cohen's d) ([2]; Stage 2): 0.311
- SDS Days Unproductive Change from Baseline to Week 5 Mean (SE) ([2]; Stage 2, 34 mg QD + SSRI/SNRI): −0.655 (0.4689)
- SDS Days Unproductive Change from Baseline to Week 5 Median ([2]; Stage 2, 34 mg QD + SSRI/SNRI): −1.000
- SDS Days Unproductive Week 5 Mean (SE) ([2]; Stage 2, 34 mg QD + SSRI/SNRI): 2.276 (0.4295)
- SDS Days Unproductive Week 5 Median ([2]; Stage 2, 34 mg QD + SSRI/SNRI): 2.000
- SDS Score LSM change from baseline to Week 5 ([2]; Stage 2, 34 mg QD + SSRI/SNRI): −0.901
- Functional remission: Remitter (%) ([2]; Week 1, Stage 1, 34 mg QD + SSRI/SNRI): 9 (17.6) %
- Functional remission: Remitter (%) ([2]; Week 1, Stage 2, 34 mg QD + SSRI/SNRI): 2 (6.9) %
- Functional remission: Remitter (%) ([2]; Week 2, Stage 1, 34 mg QD + SSRI/SNRI): 21 (41.2) %
- Functional remission: Remitter (%) ([2]; Week 2, Stage 2, 34 mg QD + SSRI/SNRI): 3 (10.3) %
- Functional remission: Remitter (%) ([2]; Week 3, Stage 1, 34 mg QD + SSRI/SNRI): 20 (39.2) %
- Functional remission: Remitter (%) ([2]; Week 3, Stage 2, 34 mg QD + SSRI/SNRI): 3 (10.3) %
- Functional remission: Remitter (%) ([2]; Week 4, Stage 1, 34 mg QD + SSRI/SNRI): 20 (39.2) %
- Functional remission: Remitter (%) ([2]; Week 4, Stage 2, 34 mg QD + SSRI/SNRI): 4 (13.8) %
- Functional remission: Remitter (%) ([2]; Week 5, Stage 1, 34 mg QD + SSRI/SNRI): 22 (43.1) %
- Functional remission: Remitter (%) ([2]; Week 5, Stage 2, 34 mg QD + SSRI/SNRI): 6 (20.7) %
- SDS effect size, treatment difference in LSmean change from baseline to Week 10 ([2]; continuous treatment for 10 weeks in Stages 1 and 2): 0.469
- Weighted Treatment Diff in Remission Rate (%) ([2]; functional remission, Overall Treatment Comparison at Week 5 (Linear Combination Test)): 18.6%
- Diff (PIM 34 mg-Placebo) in Remission Rate (%) ([2]; functional remission, Week 1, Stage 1): 5.1%
- Diff (PIM 34 mg-Placebo) in Remission Rate (%) ([2]; functional remission, Week 1, Stage 2): −3.4%
- Diff (PIM 34 mg-Placebo) in Remission Rate (%) ([2]; functional remission, Week 2, Stage 1): 27.4%
- Diff (PIM 34 mg-Placebo) in Remission Rate (%) ([2]; functional remission, Week 2, Stage 2): 0.0%
- Diff (PIM 34 mg-Placebo) in Remission Rate (%) ([2]; functional remission, Week 3, Stage 1): 24.1%
- Diff (PIM 34 mg-Placebo) in Remission Rate (%) ([2]; functional remission, Week 3, Stage 2): 0.0%
- Diff (PIM 34 mg-Placebo) in Remission Rate (%) ([2]; functional remission, Week 4, Stage 1): 19.5%
- Diff (PIM 34 mg-Placebo) in Remission Rate (%) ([2]; functional remission, Week 4, Stage 2): 6.9%
- Diff (PIM 34 mg-Placebo) in Remission Rate (%) ([2]; functional remission, Week 5, Stage 1): 23.4%
- Diff (PIM 34 mg-Placebo) in Remission Rate (%) ([2]; functional remission, Week 5, Stage 2): 13.8%
- SDS LSmean difference (SE) pimavanserin vs placebo ([2]; overall (weighted Stage 1 and Stage 2)): −0.8 (0.29)
